Assay results published in US10548318B2, “N-(tetrazol-5-yl)- and N-(triazol-5-yl)arylcarboxamide derivatives with herbicidal action” (Bayer CropScience Aktiengesellschaft, priority 2015, dated 2020).

Experiments:
Type in all cases: in vivo
[1] = system: Polygonum convolvulus (POLCO); experiment: Comparative experiment in pre-emergence; details: dosage 320 g/ha
Description: (§1) Seeds of monocotyledonous and dicotyledonous weed plants and crop plants are laid out in wood-fiber pots in sandy loam and covered with soil. The compounds of the invention, formulated in the form of wettable powders (WP) or as emulsion concentrates (EC), are then applied to the surface of the covering soil in the form of an aqueous suspension or emulsion at a water application rate equating to 600 to 800 I/ha, with addition of 0.2% wetting agent. After the treatment, the pots are placed in a greenhouse and kept under good growth conditions for the trial plants. The damage to the test plants is scored visually after a test period of 3 weeks by comparison with untreated controls (herbicidal activity in percent (%): 100% activity=the plants have died, 0% activity=like control plants). Here, for example, the compounds Nos. 1-384, 1-390, 3-384, 5-384, 19-384, 9-390, 21-384, 23-384 and 28-390, at an application rate of 320 g/ha, each show an activity of at least 80% against Stellaria media and Amaranthus retroflexus.
For comparative purposes, the herbicidal activity of some compounds according to the invention and the most structurally similar compounds known from the prior art were tested.

[2] = system: Stellaria media; experiment: Post-emergence herbicidal action against harmful plants; details: 504 h, application rate 80 g/ha, visual assessment after about 3 weeks vs untreated controls, read-out: herbicidal action in percent against Stellaria media
Procedure: (§2) Seeds of monocotyledonous and dicotyledonous weed and crop plants are laid out in sandy loam soil in wood-fiber pots, covered with soil and cultivated in a greenhouse under good growth conditions. 2 to 3 weeks after sowing, the test plants are treated at the one-leaf stage. The compounds of the invention, formulated in the form of wettable powders (WP) or as emulsion concentrates (EC), are then sprayed onto the green parts of the plants in the form of an aqueous suspension or emulsion at a water application rate equating to 600 to 800 I/ha, with addition of 0.2% wetting agent. After the test plants have been left to stand in the greenhouse under optimal growth conditions for about 3 weeks, the action of the preparations is assessed visually in comparison to untreated controls (herbicidal action in percent (%): 100% activity=the plants have died, 0% activity=like control plants). Here, for example, the compounds Nos. 1-384, 1-390, 3-384, 5-384, 19-384, 9-390, 21-384, 23-384, 28-390 and 32-384, at an application rate of 80 g/ha, each show an activity of at least 80% against Stellaria media and Veronica persica.

[3] = system: Veronica persica; experiment: as above; details: 504 h, application rate 80 g/ha, visual assessment after about 3 weeks vs untreated controls, read-out: herbicidal action in percent against Veronica persica
Procedure: as §2

[4] = system: Stellaria media; experiment: Pre-emergence herbicidal action against harmful plants; details: 504 h, application rate 320 g/ha, visual scoring after 3 weeks vs untreated controls, read-out: herbicidal activity in percent against Stellaria media
Description: as §1

[5] = system: Amaranthus retroflexus; experiment: as above; details: 504 h, application rate 320 g/ha, visual scoring after 3 weeks vs untreated controls, read-out: herbicidal activity in percent against Amaranthus retroflexus
Description: as §1

## CCOC(=O)OC(C)OC(=Nc1nnnn1C)c1ccc(C)c(S(C)(=O)=O)c1Cl (stereo not shown) [No. 19-390, 1-[(ethoxycarbonyl)oxy]ethyl 2-chloro-4-methyl-3-(methylsulfonyl)-N-(1-methyl-1H-tetrazol-5-yl)benzenecarboximidate]
[1]
  Herbicidal activity against POLCO: 100%

## CCOC(=O)OC(C)N(C(=O)c1ccc(C)c(S(C)(=O)=O)c1Cl)c1nnnn1C (stereo not shown) [No. 28-390, 1-{[2-chloro-4-methyl-3-(methylsulfonyl)benzoyl](1-methyl-1H-tetrazol-5-yl)amino}ethyl ethyl carbonate]
[2]
  pest or weed control at 80 g/ha: ≥ 80%
[3]
  pest or weed control at 80 g/ha: ≥ 80%
[4]
  pest or weed control at 320 g/ha: ≥ 80%
[5]
  pest or weed control at 320 g/ha: ≥ 80%
[1]
  Herbicidal activity against POLCO: 90%

## CCOC(=O)OC(C)n1nnn(C)c1=NC(=O)c1ccc(C(F)(F)F)c(SC)c1Cl (stereo not shown) [No. 1-384, 1-(5-{[2-chloro-3-(methylsulfanyl)-4-(trifluoromethyl)benzoyl]imino}-4-methyl-4,5-dihydro-1H-tetrazol-1-yl)ethyl ethyl carbonate]
[2]
  pest or weed control at 80 g/ha: ≥ 80%
[3]
  pest or weed control at 80 g/ha: ≥ 80%
[4]
  pest or weed control at 320 g/ha: ≥ 80%
[5]
  pest or weed control at 320 g/ha: ≥ 80%

## CCOC(=O)OC(C)OC(=Nc1nnnn1C)c1ccc(C(F)(F)F)c(SC)c1Cl (stereo not shown) [No. 19-384, 1-[(ethoxycarbonyl)oxy]ethyl 2-chloro-3-(methylsulfanyl)-N-(1-methyl-1H-tetrazol-5-yl)-4-(trifluoromethyl)benzenecarboximidate]
[2]
  pest or weed control at 80 g/ha: ≥ 80%
[3]
  pest or weed control at 80 g/ha: ≥ 80%
[4]
  pest or weed control at 320 g/ha: ≥ 80%
[5]
  pest or weed control at 320 g/ha: ≥ 80%

## COC(=O)OC(C)OC(=Nc1nnnn1C)c1ccc(C(F)(F)F)c(SC)c1Cl (stereo not shown) [No. 21-384, 1-[(Methoxycarbonyl)oxy]ethyl 2-chloro-3-(methylsulfanyl)-N-(1-methyl-1H-tetrazol-5-yl)-4-(trifluoromethyl)benzenecarboximidate]
[2]
  pest or weed control at 80 g/ha: ≥ 80%
[3]
  pest or weed control at 80 g/ha: ≥ 80%
[4]
  pest or weed control at 320 g/ha: ≥ 80%
[5]
  pest or weed control at 320 g/ha: ≥ 80%
[1]
  Herbicidal activity against POLCO: 100%

## CSc1c(C(F)(F)F)ccc(C(=O)N=c2n(C)nnn2C(C)OC(=O)OC2CCCCC2)c1Cl (stereo not shown) [No. 5-384, 1-(5-{[2-chloro-3-(methylsulfanyl)-4-(trifluoromethyl)benzoyl]imino}-4-methyl-4,5-dihydro-1H-tetrazol-1-yl)ethyl cyclohexyl carbonate]
[2]
  pest or weed control at 80 g/ha: ≥ 80%
[3]
  pest or weed control at 80 g/ha: ≥ 80%
[4]
  pest or weed control at 320 g/ha: ≥ 80%
[5]
  pest or weed control at 320 g/ha: ≥ 80%

## CSc1c(C(F)(F)F)ccc(C(=Nc2nnnn2C)OC(C)OC(=O)OC2CCCCC2)c1Cl (stereo not shown) [No. 23-384, 1-{[(cyclohexyloxy)carbonyl]oxy}ethyl 2-chloro-3-(methylsulfanyl)-N-(1-methyl-1H-tetrazol-5-yl)-4-(trifluoromethyl)benzenecarboximidate]
[2]
  pest or weed control at 80 g/ha: ≥ 80%
[3]
  pest or weed control at 80 g/ha: ≥ 80%
[4]
  pest or weed control at 320 g/ha: ≥ 80%
[5]
  pest or weed control at 320 g/ha: ≥ 80%
[1]
  Herbicidal activity against POLCO: 90%

## CCOC(=O)OC(C)n1nnn(C)c1=NC(=O)c1ccc(C)c(S(C)(=O)=O)c1Cl (stereo not shown) [No. 1-390, 1-(5-{[2-chloro-4-methyl-3-(methylsulfonyl)benzoyl]imino}-4-methyl-4,5-dihydro-1H-tetrazol-1-yl)ethyl ethyl carbonate]
[2]
  pest or weed control at 80 g/ha: ≥ 80%
[3]
  pest or weed control at 80 g/ha: ≥ 80%
[4]
  pest or weed control at 320 g/ha: ≥ 80%
[5]
  pest or weed control at 320 g/ha: ≥ 80%
[1]
  Herbicidal activity against POLCO: 100%

## COC(=O)OC(C)n1nnn(C)c1=NC(=O)c1ccc(C(F)(F)F)c(SC)c1Cl (stereo not shown) [No. 3-384, 1-(5-{[2-chloro-3-(methylsulfanyl)-4-(trifluoromethyl)benzoyl]imino}-4-methyl-4,5-dihydro-1H-tetrazol-1-yl)ethyl methyl carbonate]
[2]
  pest or weed control at 80 g/ha: ≥ 80%
[3]
  pest or weed control at 80 g/ha: ≥ 80%
[4]
  pest or weed control at 320 g/ha: ≥ 80%
[5]
  pest or weed control at 320 g/ha: ≥ 80%
